The text below walks through data of ChEMBL document CHEMBL1139449, “Synthesis and inhibitory activity against COX-2 catalyzed prostaglandin production of chrysin derivatives” (Bioorg Med Chem Lett, 2004).

One may read the IC50 as the point on the concentration scale where inhibition reaches its midpoint. A lower IC50 goes with higher potency.

One test relates to RAW264.7. Briefly: Evaluated for inhibition of COX-2 catalyzed PGE-2 production from LPS induced RAW 264.7 cells; Range: 0.1-0.5 uM. It counts as functional, cell-based. Conditions: Mus musculus.
`COc1ccc2c(=O)cc(-c3ccc(Cl)c(Cl)c3)oc2c1`: the IC50 was under 500 nM.
Still for that read-out and setting: the value for `O=c1cc(-c2ccc(Cl)c(Cl)c2)oc2cc(O)ccc12` was under 500 nM.
`COc1cccc2oc(-c3ccc(Cl)c(Cl)c3)cc(=O)c12` returned an IC50 of under 500 nM.

A further test has as its system RAW264.7. Briefly: Evaluated for inhibition of COX-2 catalyzed PGE-2 production from LPS induced RAW 264.7 cells. It counts as functional, cell-based. The note with it: Mus musculus.
The compound `COc1ccc2c(=O)cc(-c3ccc(Cl)cc3)oc2c1` yielded an IC50 of 500 nM.
`O=c1cc(-c2ccccc2)oc2ccccc12` [FLAVONE] displayed a half-maximal inhibitory concentration (IC50) of 500 nM.
The same measure, in the same setting: the value for `CS(=O)(=O)Nc1ccc([N+](=O)[O-])cc1OC1CCCCC1` [NS-398] was 500 nM; that for `COc1c(O)cc(O)c2c(=O)cc(-c3ccccc3)oc12` [WOGONIN] was 1080 nM.
